Results published in patent US20120115900A1, “SUBSTITUTED NAPHTHYRIDINE DERIVATIVES AND THEIR MEDICAL USE” (NEUROSEARCH A/S, priority 2009, published 2012).
pEC50: −log10 of the molar value.

Columns and labels:
[1] = target: T1, human Kv7.2+3 (Homo sapiens, UniProt O43525+O43526); test: FLIPR-based characterization of Kv7.2+3 modulators (thallium (I) sensitive BTC fluorescence assay); assay type: cell-based; conditions: HEK293 cells over-expressing human Kv7.2+3, mean of at least two test runs; for pEC50: Tl+ influx, FLIPR, 50% of channel activity compared to retigabine control responses; for Emax: maximal response relative to the reference (retigabine) response, read-out: Efficacy
T1 construct: expressed in transfected cells; host or cells: HEK293
Description: FLIPR-Based Characterization of Kv7.2+3 Modulators
This experiment determines the ability of a test compound to modulate the activity of Kv7.2+3 channels heterologously expressed in human HEK293 cells. The ability is determined relative to retigabine. The activity is determined using a standard thallium (I) sensitive assay, e.g. using a fluorometric method in a Fluorescent Image Plate Reader (FLIPR) as described below in more detail.
Full concentration/response curves are generated and EC50 values are calculated based on max values. EC50 values (Effective Concentration) represent the concentration of the test substance, at which 50% of the channel activity is obtained when compared to retigabine control responses. Maximal response determined relative to the reference (retigabine) response is calculated.
Human HEK293 cells over-expressing human Kv7.2+3 are grown in culture medium (DMEM supplemented with 10% foetal bovine serum), in polystyrene culture flasks ([…]) in a humidified atmosphere of 5% CO2 in air, at 37° C. Cell confluence should be 80-90% on day of plating. Cells are rinsed with 4 ml of PBS (phosphate buffered saline) and incubated 2 min with 1 ml of Trypsin-EDTA. After addition of 25 ml of culture medium cells are re-suspended by trituration with a 25 ml pipette.
The cells are seeded at a density of ˜3×10^6 cells/ml (25 μl/well) in blackwalled, clear bottom, 384-well plates pre-treated with 0.01 g/l poly-D-lysin (20 μl/well for ≧30 min). Plated cells were allowed to proliferate for 24 h before loading with dye.
BTC-AM (50 mg, Invitrogen) is added 25.5 μl DMSO. The BTC-AM stock solution (2 mM) is diluted to a final concentration of 2 μM in Cl^− free assay buffer (in mM: 140 Na^+-gluconate, 2.5 K^+-gluconate, 6 Ca2^+-gluconate, 1 Mg^2+gluconate, 5 glucose, 10 HEPES, pH 7.3) containing 2 μM ouabain, 2 mM amaranth and 1 mM tartrazine.
The culture medium is aspirated from the wells, the cells are washed thrice in Cl^− free assay buffer, and 25 μl of the BTC-AM loading solution is added to each well. The cells are incubated at 37° C. for 60 min.
After the loading period, the TI^+-sensitive BTC fluorescence signal is measured over time using a FLIPR.
• Temperature: Room temp. • First addition: 12 μl test or control compound after 15 sec at a rate of 30 μl/sec and starting height of 20 μl • Second addition: 12 μl stimulus buffer (Cl^− free assay buffer supplemented with 1 mM Tl2SO4, 5 mM K2SO4 as well as the quenchers amaranth (2 mM) and tartrazine (1 mM)) is added after an additional 3 minutes at a rate of 30 μl/sec and starting height of 30 μl • Reading intervals: First sequence—3 sec×5, 2 sec×24 and 5 sec×25 Second sequence—1 sec×5, 2 sec×24 and 5 sec×36 Addition plates (compound plate and stimulus plate) are placed in positions 2 and 3, respectively. Cell plates are placed in position 1 and run using the “KCNQ (two additions)” program. FLIPR will then take the appropriate measurements in accordance with the interval settings above. Fluorescence obtained after stimulation is corrected for the mean basal fluorescence (in Cl^− free assay buffer).
Full concentration/response curves are generated and EC50 values (“Effective Concentration”; the concentration at which 50% of the channel activity is obtained when compared to retigabine control responses) are calculated based on peak values. Maximal response determined relative to the reference (retigabine) response is calculated. Data are given as mean of at least two test runs

Structure (SMILES) | pEC50 [1] | Emax [1] | melting point
Cc1cc(N2CCc3ncccc3C2)nc(N2CC[C@@H](F)C2)c1NC(=O)Cc1cc(F)cc(F)c1 [Compound 1.5, 2-(3,5-difluorophenyl)-N-[6-(7,8-dihydro-5H-1,6-naphthyridin-6-yl)-2-[(3R)-3-fluoropyrrolidin-1-yl]-4-methyl-3-pyridyl]-acetamide] | 6.72 | 101% | 
Cc1cc(N2CCc3ncccc3C2)nc(N2CCC(F)(F)CC2)c1NC(=O)c1conc1C [Compound 1.11, N-[2-(4,4-difluoro-1-piperidyl)-6-(7,8-dihydro-5H-1,6-naphthyridin-6-yl)-4-methyl-3-pyridyl]-3-methyl-isoxazole-4-carboxamide] | 5.92 | 115% | 
Cc1nc(C(=O)Nc2c(C)cc(N3CCc4ncccc4C3)nc2N2CCC(F)(F)CC2)c(C)o1 [Compound 1.16, N-[2-(4,4-difluoro-1-piperidyl)-6-(7,8-dihydro-5H-1,6-naphthyridin-6-yl)-4-methyl-3-pyridyl]-2,5-dimethyl-oxazole-4-carboxamide] | 5.27 | 116% | 
CCOC(=O)Nc1c(C)cc(N2CCc3ncccc3C2)nc1N1CCC(F)(F)CC1 [Compound 1.20, ethyl N-[2-(4,4-difluoro-1-piperidyl)-6-(7,8-dihydro-5H-1,6-naphthyridin-6-yl)-4-methyl-3-pyridyl]-carbamate] | 6.55 | 100% | 
Cc1cccnc1C(=O)Nc1c(C)cc(N2CCc3ncccc3C2)nc1N1CCC(F)(F)CC1 [Compound 1.15, N-[2-(4,4-difluoro-1-piperidyl)-6-(7,8-dihydro-5H-1,6-naphthyridin-6-yl)-4-methyl-3-pyridyl]-3-methyl-pyridine-2-carboxamide] | 5.54 | 28% | 
Cc1cc(N2CCc3ncccc3C2)nc(N2CCC(F)(F)CC2)c1NC(=O)c1scnc1C [Compound 1.10, N-[2-(4,4-difluoro-1-piperidyl)-6-(7,8-dihydro-5H-1,6-naphthyridin-6-yl)-4-methyl-3-pyridyl]-4-methyl-thiazole-5-carboxamide] | 5.16 | 115% | 
CCc1ocnc1C(=O)Nc1c(C)cc(N2CCc3ncccc3C2)nc1N1CCC(F)(F)CC1 [Compound 1.14, N-[2-(4,4-difluoro-1-piperidyl)-6-(7,8-dihydro-5H-1,6-naphthyridin-6-yl)-4-methyl-3-pyridyl]-5-ethyl-oxazole-4-carboxamide] | 7.70 | 89% | 
Cc1cc(N2CCc3ncccc3C2)nc(N2CCCC2)c1NC(=O)c1cccc(F)c1 [Compound 1.3, N-[6-(7,8-Dihydro-5H-[1,6]naphthyridin-6-yl)-4-methyl-2-pyrrolidin-1-yl-pyridin-3-yl]-3-fluoro-benzamide] | 5.30 | 24% | 
Cc1cc(N2CCc3ncccc3C2)nc(N2CCC(F)(F)CC2)c1NC(=O)c1ncoc1C1CC1 [Compound 1.18, 5-cyclopropyl-N-[2-(4,4-difluoro-1-piperidyl)-6-(7,8-dihydro-5H-1,6-naphthyridin-6-yl)-4-methyl-3-pyridyl]oxazole-4-carboxamide] | 7.14 | 34% | 
Cc1cc(N2CCc3ncccc3C2)nc(N2CCCC2)c1NC(=O)CC(C)(C)C [Compound 1.2, N-[6-(7,8-Dihydro-5H-[1,6]naphthyridin-6-yl)-4-methyl-2-pyrrolidin-1-yl-pyridin-3-yl]-3,3-dimethyl-butyramide] | 5.92 | 121% | 

Other lines, results leading:

pEC50 [1] | Emax [1] | melting point | Structure (SMILES)
5.34 | 90% |  | Cc1cc(N2CCc3ncccc3C2)nc(N2CCC(F)(F)CC2)c1NC(=O)c1ncoc1-c1ccccc1 [Compound 1.17, N-[2-(4,4-difluoro-1-piperidyl)-6-(7,8-dihydro-5H-1,6-naphthyridin-6-yl)-4-methyl-3-pyridyl]-5-phenyl-oxazole-4-carboxamide]
6.66 | 104% |  | Cc1cc(N2CCc3ncccc3C2)nc(N2CCC(F)(F)CC2)c1NC(=O)Cc1cc(F)cc(F)c1 [Compound 1.7, 2-(3,5-difluorophenyl)-N-[2-(4,4-difluoro-1-piperidyl)-6-(7,8-dihydro-5H-1,6-naphthyridin-6-yl)-4-methyl-3-pyridyl]-acetamide]
7.17 | 96% | 203 to 206 °C | Cc1cc(N2CCc3ncccc3C2)nc(N2CCCC2)c1NC(=O)Cc1cc(F)cc(F)c1 [Compound 1.1, 2-(3,5-Difluoro-phenyl)-N-[6-(7,8-dihydro-5H-[1,6]naphthyridin-6-yl)-4-methyl-2-pyrrolidin-1-yl-pyridin-3-yl]-acetamide]
7.30 | 105% |  | Cc1cc(N2CCc3ncccc3C2)nc(N2CCC(F)(F)CC2)c1NC(=O)c1ncoc1C [Compound 1.9, N-[2-(4,4-difluoro-1-piperidyl)-6-(7,8-dihydro-5H-1,6-naphthyridin-6-yl)-4-methyl-3-pyridyl]-5-methyl-oxazole-4-carboxamide]
5.96 | 109% |  | Cc1cc(N2CCc3ncccc3C2)nc(N2CCC(F)(F)CC2)c1NC(=O)CC1CC1 [Compound 1.13, 2-cyclopropyl-N-[2-(4,4-difluoro-1-piperidyl)-6-(7,8-dihydro-5H-1,6-naphthyridin-6-yl)-4-methyl-3-pyridyl]-acetamide]
5.28 | 71% |  | Cc1cc(N2CCc3ncccc3C2)nc(N2CCC(F)(F)CC2)c1NC(=O)c1cnsc1C [Compound 1.19, N-[2-(4,4-difluoro-1-piperidyl)-6-(7,8-dihydro-5H-1,6-naphthyridin-6-yl)-4-methyl-3-pyridyl]-5-methyl-isothiazole-4-carboxamide]
5.89 | 114% |  | Cc1cc(N2CCc3ncccc3C2)nc(N2CCC(F)(F)CC2)c1NC(=O)c1nccn1C [Compound 1.8, N-[2-(4,4-difluoro-1-piperidyl)-6-(7,8-dihydro-5H-1,6-naphthyridin-6-yl)-4-methyl-3-pyridyl]-1-methyl-imidazole-2-carboxamide]
7.72 | 81% |  | Cc1ccoc1C(=O)Nc1c(C)cc(N2CCc3ncccc3C2)nc1N1CCC(F)(F)CC1 [Compound 1.6, N-[2-(4,4-difluoro-1-piperidyl)-6-(7,8-dihydro-5H-1,6-naphthyridin-6-yl)-4-methyl-3-pyridyl]-3-methyl-furan-2-carboxamide]
7.07 | 101% |  | Cc1ccoc1C(=O)Nc1c(C)cc(N2CCc3ncccc3C2)nc1N1CC[C@@H](F)C1 [Compound 1.4, N-[6-(7,8-dihydro-5H-1,6-naphthyridin-6-yl)-2-[(3R)-3-fluoropyrrolidin-1-yl]-4-methyl-3-pyridyl]-3-methyl-furan-2-carboxamide]
7.19 | 100% |  | Cc1cc(N2CCc3ncccc3C2)nc(N2CCC(F)(F)CC2)c1NC(=O)c1ocnc1C [Compound 1.12, N-[2-(4,4-difluoro-1-piperidyl)-6-(7,8-dihydro-5H-1,6-naphthyridin-6-yl)-4-methyl-3-pyridyl]-4-methyl-oxazole-5-carboxamide]
